# Measured values from patent US20240158446A1, “CYCLIC COMPOUND HAVING SELECTIVE INHIBITORY ACTION ON KRAS OVER HRAS AND NRAS” (CHUGAI SEIYAKU KABUSHIKI KAISHA, priority 2021, published 2024).
# Experiments:
# [1] = biological target: GDP-bound NRAS wild-type protein (Homo sapiens, UniProt P01111); test: Binding to NRAS by surface plasmon resonance (SPR), Single Cycle Kinetics; settings: SPR, GDP-bound NRAS wild-type protein vs GDP-bound KRAS wild-type protein
# [2] = biological target: GDP-bound HRAS wild-type protein (Homo sapiens, UniProt P01112); test: Binding to HRAS by surface plasmon resonance (SPR), Single Cycle Kinetics; settings: SPR, GDP-bound HRAS wild-type protein vs GDP-bound KRAS wild-type protein
# Chain of GDP-bound HRAS wild-type protein (P01112 whole entry): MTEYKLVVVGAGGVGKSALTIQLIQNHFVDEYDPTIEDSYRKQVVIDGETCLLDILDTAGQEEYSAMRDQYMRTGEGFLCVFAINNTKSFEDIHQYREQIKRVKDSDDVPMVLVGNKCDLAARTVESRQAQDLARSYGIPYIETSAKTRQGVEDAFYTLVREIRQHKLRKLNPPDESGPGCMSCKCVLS
# Chain of GDP-bound NRAS wild-type protein (P01111 whole entry): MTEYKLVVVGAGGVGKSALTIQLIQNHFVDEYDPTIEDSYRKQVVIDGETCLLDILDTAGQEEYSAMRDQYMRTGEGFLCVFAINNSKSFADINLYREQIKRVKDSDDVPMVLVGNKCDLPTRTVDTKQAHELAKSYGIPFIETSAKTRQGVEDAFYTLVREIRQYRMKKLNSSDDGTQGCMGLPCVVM
Compound,NRAS/KRAS (ratio of KD value for NRAS to KD value for KRAS) [1],HRAS/KRAS (ratio of KD value for HRAS to KD value for KRAS) [2],NRAS/KRAS (ratio of KD value for NRAS to KD value for KRAS) ([1]; KD ratio class),HRAS/KRAS (ratio of KD value for HRAS to KD value for KRAS) ([2]; KD ratio class)
"CCO[C@@H]1C[C@H]2C(=O)NC3(CCCC3)C(=O)N(C)[C@@H](C3CCCC3)C(=O)N(C)[C@H](C(=O)N(C)C)CC(=O)N(C)[C@@H](CC(C)C)C(=O)N[C@@H]([C@@H](C)CC)C(=O)N(C)CC(=O)N(C)[C@H]3C/C=C\CCN(C3=O)[C@@H](Cc3ccc(C(F)(F)F)cc3)C(=O)N(C)CC(=O)N[C@@H](CCc3cc(F)c(C(F)(F)F)c(F)c3)C(=O)N2C1 [PP1105, (2S,8S,12R,14S,20S,23S,27S,30S,36S,38Z)-20-cyclopentyl-8-[2-[3,5-difluoro-4-(trifluoromethyl)phenyl]ethyl]-12-ethoxy-27-isobutyl-N,N,4,19,22,26,32,35-octamethyl-30-[(1S)-1-methylpropyl]-3,6,9,15,18,21,25,28,31,34,42-undecaoxo-2-[[4-(trifluoromethyl)phenyl]methyl]spiro[1,4,7,10,16,19,22,26,29,32,35-undecazatricyclo[34.5.1.0^10,14]dotetracont-38-ene-17,1′-cyclopentane]-23-carboxamide]",A (a compound having 10 or more and less than 20 is denoted as A),A (a compound having 10 or more and less than 20 is denoted as A),–,–
CC[C@H](C)[C@@H]1NC(=O)[C@H](CC(C)C)N(C)C(=O)C[C@@H](C(=O)N2C[C@@H](C)O[C@@H](C)C2)N(C)C(=O)[C@H](C2CCCC2)N(C)C(=O)C2(CCCC2)NC(=O)[C@@H]2CCCN2C(=O)[C@H](CCc2ccc(C(F)(F)F)c(Cl)c2)NC(=O)CN(C)C(=O)[C@H](Cc2ccc(F)cc2)N2CCCCC[C@@H](C2=O)N(C)C(=O)CN(C)C1=O [PP1151],B (a compound having 3 or more and less than 10 is denoted as B),B (a compound having 3 or more and less than 10 is denoted as B),–,–
CCO[C@@H]1C[C@H]2C(=O)NC3(CCC3)C(=O)N(C)[C@@H](C3CCCC3)C(=O)N(C)[C@H](C(=O)N(CC)CC)CC(=O)N(C)[C@@H](CC(F)F)C(=O)N[C@@H]([C@@H](C)CC)C(=O)N(C)CC(=O)N(C)[C@H]3C/C=C\CCN(C3=O)[C@@H](Cc3ccc(C(F)(F)F)cc3)C(=O)N(C)CC(=O)N[C@@H](CCc3cc(F)c(C(F)(F)F)c(F)c3)C(=O)N2C1 [PP1309],–,–,A (a compound having 10 or more and less than 20 is denoted as A),A (a compound having 10 or more and less than 20 is denoted as A)
CCO[C@@H]1C[C@H]2C(=O)NC3(CCC3)C(=O)N(C)[C@@H](C3CCCC3)C(=O)N(C)[C@H](C)CC(=O)N(C)[C@@H](CC3CC3)C(=O)N[C@@H]([C@@H](C)CC)C(=O)N(C)CC(=O)N(C)[C@H]3C/C=C\CCN(C3=O)[C@@H](Cc3ccc(F)cc3C)C(=O)N(C)CC(=O)N[C@@H](CCc3cc(F)c(C(F)(F)F)c(F)c3)C(=O)N2C1 [PP1489],–,–,B (a compound having 3 or more and less than 10 is denoted as B),B (a compound having 3 or more and less than 10 is denoted as B)
CCO[C@@H]1C[C@H]2C(=O)NC3(CCC3)C(=O)N(C)[C@@H](C3CCCC3)C(=O)N(C)[C@H](C)CC(=O)N(C)[C@@H](CC3CCCC3)C(=O)N[C@@H]([C@@H](C)CC)C(=O)N(C)CC(=O)N(C)[C@H]3C/C=C\CCN(C3=O)[C@@H](Cc3ccc(F)cc3)C(=O)N(C)CC(=O)N[C@@H](CCc3cc(F)c(C(F)(F)F)c(F)c3)C(=O)N2C1 [PP1492],–,–,B (a compound having 3 or more and less than 10 is denoted as B),B (a compound having 3 or more and less than 10 is denoted as B)
CCO[C@@H]1C[C@H]2C(=O)NC3(CCC3)C(=O)N(C)[C@@H](C3CCCC3)C(=O)N(C)[C@H](C)CC(=O)N(C)[C@@H](CC(C)C)C(=O)N[C@@H]([C@@H](C)CC)C(=O)N(C)CC(=O)N(C)[C@H]3C/C=C\CCN(C3=O)[C@@H](Cc3ccc(F)cc3C)C(=O)N(C)CC(=O)N[C@@H](CCc3cc(F)c(C(F)(F)F)c(F)c3)C(=O)N2C1 [PP1493],–,–,B (a compound having 3 or more and less than 10 is denoted as B),B (a compound having 3 or more and less than 10 is denoted as B)
CCO[C@@H]1C[C@H]2C(=O)NC3(CCC3)C(=O)N(C)[C@@H](C3CCCC3)C(=O)N(C)[C@H](C)CC(=O)N(C)[C@@H](CC(C)C)C(=O)N[C@@H]([C@@H](C)CC)C(=O)N(C)CC(=O)N(C)[C@H]3C/C=C\CCN(C3=O)[C@@H](Cc3ccc(F)cc3)C(=O)N(C)CC(=O)N[C@@H](CCc3cc(F)c(C(F)(F)F)c(F)c3)C(=O)N2C1 [PP1494],–,–,B (a compound having 3 or more and less than 10 is denoted as B),B (a compound having 3 or more and less than 10 is denoted as B)
CCO[C@@H]1C[C@H]2C(=O)NC3(CCC3)C(=O)N(C)[C@@H](C3CCCC3)C(=O)N(C)[C@H](C(=O)N3CCOCC3)CC(=O)N(C)[C@@H](CC3CC3)C(=O)N[C@@H]([C@@H](C)CC)C(=O)N(C)CC(=O)N(C)[C@H]3C/C=C\CCN(C3=O)[C@@H](Cc3ccc(F)cc3C)C(=O)N(C)CC(=O)N[C@@H](CCc3cc(F)c(C(F)(F)F)c(F)c3)C(=O)N2C1 [PP1495],–,–,A (a compound having 10 or more and less than 20 is denoted as A),B (a compound having 3 or more and less than 10 is denoted as B)
CC[C@H](C)[C@@H]1NC(=O)[C@H](CC2CCCC2)N(C)C(=O)C[C@@H](C(=O)N(C)C)N(C)C(=O)[C@H](C2CCCC2)N(C)C(=O)C2(CCC2)NC(=O)[C@@H]2C[C@@H](C(F)(F)F)CN2C(=O)[C@H](CCc2cc(F)c(C(F)(F)F)c(F)c2)NC(=O)CN(C)C(=O)[C@H](Cc2ccc(F)cc2)N2CC/C=C\C[C@@H](C2=O)N(C)C(=O)CN(C)C1=O [PP1508],–,–,A (a compound having 10 or more and less than 20 is denoted as A),A (a compound having 10 or more and less than 20 is denoted as A)
CC[C@H](C)[C@@H]1NC(=O)[C@H](CC2CC2)N(C)C(=O)C[C@@H](C(=O)N2CCCC2)N(C)C(=O)[C@H](C2CCCC2)N(C)C(=O)C2(CCCC2)NC(=O)[C@@H]2C[C@@H](C(F)(F)F)CN2C(=O)[C@H](CCc2cc(F)c(C(F)(F)F)c(F)c2)NC(=O)CN(C)C(=O)[C@H](Cc2ccc(F)cc2)N2CC/C=C\C[C@@H](C2=O)N(C)C(=O)CN(C)C1=O [PP1509],–,–,A (a compound having 10 or more and less than 20 is denoted as A),A (a compound having 10 or more and less than 20 is denoted as A)
CCO[C@@H]1C[C@H]2C(=O)NC3(CCC3)C(=O)N(C)[C@@H](C(CC)CC)C(=O)N(C)[C@H](C(=O)N(C)C)CC(=O)N(C)[C@@H](CC3CC3)C(=O)N[C@@H]([C@@H](C)CC)C(=O)N(C)CC(=O)N(C)[C@H]3C/C=C\CCN(C3=O)[C@@H](Cc3ccc(F)cc3C)C(=O)N(C)CC(=O)N[C@@H](CCc3cc(F)c(C(F)(F)F)c(F)c3)C(=O)N2C1 [PP1514],–,–,A (a compound having 10 or more and less than 20 is denoted as A),A (a compound having 10 or more and less than 20 is denoted as A)
CCO[C@@H]1C[C@H]2C(=O)NC3(CCC3)C(=O)N(C)[C@@H](C(CC)CC)C(=O)N(C)[C@H](C)CC(=O)N(C)[C@@H](CC3CC3)C(=O)N[C@@H]([C@@H](C)CC)C(=O)N(C)CC(=O)N(C)[C@H]3C/C=C\CCN(C3=O)[C@@H](Cc3ccc(F)cc3C)C(=O)N(C)CC(=O)N[C@@H](CCc3cc(F)c(C(F)(F)F)c(F)c3)C(=O)N2C1 [PP1520],–,–,A (a compound having 10 or more and less than 20 is denoted as A),A (a compound having 10 or more and less than 20 is denoted as A)
CCO[C@@H]1C[C@H]2C(=O)NC3(CCC3)C(=O)N(C)[C@@H](C(CC)CC)C(=O)N(C)[C@H](C)CC(=O)N(C)[C@@H](CC(C)C)C(=O)N[C@@H]([C@@H](C)CC)C(=O)N(C)CC(=O)N(C)[C@H]3C/C=C\CCN(C3=O)[C@@H](Cc3ccc(F)cc3C)C(=O)N(C)CC(=O)N[C@@H](CCc3cc(F)c(C(F)(F)F)c(F)c3)C(=O)N2C1 [PP1524],–,–,B (a compound having 3 or more and less than 10 is denoted as B),B (a compound having 3 or more and less than 10 is denoted as B)
CCO[C@@H]1C[C@H]2C(=O)NC3(CCC3)C(=O)N(C)[C@@H](C(CC)CC)C(=O)N(C)[C@H](C)CC(=O)N(C)[C@@H](CC(C)C)C(=O)N[C@@H]([C@@H](C)CC)C(=O)N(C)CC(=O)N(C)[C@H]3C/C=C\CCN(C3=O)[C@@H](Cc3ccc(F)cc3)C(=O)N(C)CC(=O)N[C@@H](CCc3cc(F)c(C(F)(F)F)c(F)c3)C(=O)N2C1 [PP1525],–,–,A (a compound having 10 or more and less than 20 is denoted as A),A (a compound having 10 or more and less than 20 is denoted as A)
CCO[C@@H]1C[C@H]2C(=O)NC3(CCC3)C(=O)N(C)[C@@H](C(CC)CC)C(=O)N(C)[C@H](C(=O)N3CCOCC3)CC(=O)N(C)[C@@H](CC3CC3)C(=O)N[C@@H]([C@@H](C)CC)C(=O)N(C)CC(=O)N(C)[C@H]3C/C=C\CCN(C3=O)[C@@H](Cc3ccc(F)cc3)C(=O)N(C)CC(=O)N[C@@H](CCc3cc(F)c(C(F)(F)F)c(F)c3)C(=O)N2C1 [PP1527],–,–,A (a compound having 10 or more and less than 20 is denoted as A),A (a compound having 10 or more and less than 20 is denoted as A)
